Structures are written as SMILES. A value given as a limit tells only on which side of the number the result lay.

Here are results for 88 compounds from a melting point compilation (Tetko et al.; mined from patent text by program, amines drawn as free bases though some values may be those of a salt).

As usually defined, the melting point is the temperature of the solid-liquid transition.

In turn, `COc1ccc(N2CCN(c3ncc(-n4cn[nH]c4=O)cn3)CC2)cc1` displayed a melting point of 272 °C.
`CC(C)(C)OC(=O)Nc1cccc(C2CCN(c3nc4c(cc3F)c(=O)c(C(=O)O)cn4C3CC3)C2)c1` (stereo not drawn) registered a melting point of 210 to 211 °C.
As for `c1ccc(CNc2c(-c3ccccc3)sc3ccccc23)cc1`, the melting point was in the range of 52 to 53 °C.
`CCC(=O)NC[C@@H]1C[C@H]1c1c(I)ccc2c1CCO2` (relative stereo) gave a melting point of 148 to 149 °C.
In the case of `Cc1ccc(N2C(=O)c3nccnc3C2OC(=O)N2CCNCC2)nc1` (stereo not drawn), the melting point was found to be 182 °C.
`COc1ccc(C(=O)N2Cc3ccccc3CC2C(=O)O)cc1` (stereo not drawn): the melting point is 178 to 180 °C.
Under `O=C(O)c1ncc(Cl)nc1Cl` stands 139 to 141 °C.
`CCOc1ccc(C=CCCCCC(=O)O)cc1` displayed a melting point of 62 to 63 °C.
`COC(=O)C1(c2ccc([N+](=O)[O-])cc2)CO1` (stereo not drawn) showed a melting point of 78 to 82 °C.
Turning to `COc1ccc(CN(C)CCOc2ccc(NC(=O)c3cccc4c(=O)c5ccccc5[nH]c34)cc2)cc1OC`, the melting point amounted to 140 °C.
As for `CCCCCCNc1nc(-c2ccc(F)cc2)c(-c2ccc(S(C)(=O)=O)cc2)s1`, the melting point was 161 to 162 °C.
In the case of `CCCCOc1nc(=O)n(C(=O)NC)s1` it was 108 °C.
Regarding `O=C1Nc2ccc(-c3cccc(Cl)c3)cc2C(C2CC2)(C2CC2)O1`, the melting point was in the range of 198 to 200 °C.
`CC(=O)NC(C)(C)c1ccc(CN2CCN(c3ccccn3)CC2)cc1` displayed a melting point of 129 to 130 °C.
Turning to `CCn1nc(-c2ccc(OC)cc2)c(-c2ccc(OC)c(F)c2)cc1=O`, the melting point came out at 162 °C.
In the case of `O=S(=O)(Nc1cc(Cl)c(Oc2nc3ccc(Cl)cc3s2)c(Cl)c1)c1ccc(C(F)(F)F)cc1Cl` it was 82 to 84 °C; in that of `CN(c1cccc2cc(C(=O)NCC(C)(CCO)SCc3ccccc3)[nH]c12)S(=O)(=O)c1cccs1` (stereo not drawn), 132 to 133 °C.
`CC(=O)NCc1cccc(Nc2nccc(-c3sc(N(C)c4cc(Cl)cc(Cl)c4)nc3C)n2)c1` came in with a melting point of 213 to 214 °C.
As for `O=C(Nc1nnc(C(F)(F)F)s1)c1ccc2ccccc2c1`, the melting point was 249 to 251 °C.
Turning to `COc1cc2c(cc1Br)Cc1cc(Br)ccc1-2`, the melting point is 172 °C.
For the compound `Cc1cc(C)c2nc(C)n(Cc3ccc(NCC4CCN(C(C)C)CC4)cc3)c2n1`, the melting point lay in the range of 134 to 136 °C.
In turn, `CC(C)(C)OC(=O)Nc1cc(N2CCSCC2)c(I)cc1N` yielded a melting point of 125 to 127 °C.
In the case of `CC(C)(C)OC(=O)NNC(=O)c1cc(=O)c(OCc2ccccc2)c[nH]1` it was 160 to 165 °C; in that of `CC1(C)CN(Cc2ccccc2)c2cc(Cl)cc(C(=O)NC3CN4CCC3CC4)c2O1` (stereo not drawn), 174 to 175 °C; in that of `CSc1nc2ccnn2c(NCc2ccccc2)c1C#N`, 165 °C.
`CCCCCCOc1c(Br)ccc2c(OCCCCCC)c(Br)ccc12`: the melting point is 41 to 43 °C.
`N#Cc1nn(-c2c(Cl)cc(C(F)(F)F)cc2Cl)c(N)c1C(=O)C(F)(F)F` gave a melting point of 226 °C.
As to `CCOc1c(OC)cc(COc2ccc(N)nn2)cc1OC`, the melting point fell in the range of 169 to 171 °C.
Under `COc1cc(N)c([N+](=O)[O-])cc1C(F)(F)F` stands 56 °C.
`O=[N+]([O-])c1cc(Cl)c(Cl)cc1NC1CCC(O)C1O` (stereo not drawn) showed a melting point of 134 to 136 °C.
Compound `Cc1cc(Oc2cccc(C(F)(F)F)c2)nn1C(=O)Nc1ccc(C(F)(F)F)cc1` registered a melting point of 82 to 84 °C.
`COc1cccc(CC(=O)O)c1OCCCc1ccc(OC(C)C)cc1Oc1ncc(Cl)cc1Cl` gave a melting point of 92 to 93 °C.
`CC#CCOc1cc(Cl)ncn1` came in with a melting point of 43.5 °C.
In turn, `CN1Cc2c(CO)ncn2-c2cccc(Cl)c2C1=O` gave a melting point of 207 to 208 °C.
With `O=C(O)c1cc(C(=O)C2CCCCC2)cc2c1OC(c1ccccc1)(c1ccccc1)O2`, the melting point was 212 to 214 °C.
As for `Cc1nc2ccccc2c2c1OC(C)CN2` (stereo not drawn), the melting point fell in the range of 169 to 170 °C.
`CCn1c(=O)c(C(=O)O)c(-c2ccccc2Cl)c2cc(C)c(C)cc21` gave a melting point of 168 to 170 °C.
For `Cc1ccc(S(=O)(=O)OCCC2Cc3ccccc3O2)cc1` (stereo not drawn), the melting point was 51 to 54 °C.
For `CCCCN=C(N)Nc1nc(C)cc(C)n1`, the melting point worked out at 185 °C.
The compound `COCc1ccoc1-c1cc(-n2c(N)nc3ccccc32)ccc1C` displayed a melting point of 174 to 176 °C.
Under `CCCCc1nc2cccc(C(=O)OCc3ccncc3)c2n1Cc1ccc(-c2ccccc2-c2nnn[nH]2)cc1` stands 179 to 180 °C.
With `CC(C)CNC(=O)c1cccc(-c2ccnc3c(C(=O)c4cccs4)cnn23)c1`, the melting point was 174 to 177 °C.
In turn, `N#Cc1ccc(N2CCC(O)C2)c2ccccc12` (stereo not drawn) displayed a melting point of 138 to 139 °C.
As to `Cn1c(=O)ccc2cc(CBr)ccc21`, the melting point was in the range of 99 to 100 °C.
For the compound `Cc1nn(-c2ccccn2)c2[nH]c3ccc(C(F)(F)F)cc3c(=O)c12`, the melting point lay in the range of 250 to 251 °C.
`CCCCOC(=O)N(C)c1cccc(-c2ccnc3c(C#N)cnn23)c1` gave a melting point of 96 to 97 °C.
`CCCC1(C(=O)O)c2ccccc2-c2ccccc21` came in with a melting point of 120 to 122 °C.
Turning to `OCc1c(Cl)nc(C2CCCC2)n1Cc1ccccc1`, the melting point was 102 to 103 °C.
As for `CC(C)OC(=O)c1cc([N+](=O)[O-])c(O)c([N+](=O)[O-])c1`, the melting point was 108 to 110 °C.
For the compound `N#CCC1CCN1C(c1ccccc1)c1ccccc1` (stereo not drawn), the melting point fell in the range of 82 to 85 °C.
The compound `NCc1ccc(C(=O)NC2CCN(C3CCCCC3)C2)cc1` (stereo not drawn) returned a melting point of 125 to 129 °C.
`CO/N=C(\C(=O)N[C@@H]1C(=O)N[C@@H]1COC(=O)/C(=N\OC)c1csc(NC(=O)CCl)n1)c1csc(NC(=O)CCl)n1` (relative stereo): the melting point lay within 157 to 159 °C.
With `CCCCCCCCSc1nc2cc(Cl)ccc2[nH]1`, the melting point fell in the range of 66 to 67 °C.
Under `Cc1ccc(C(=O)C2C(=O)CCC(C)(C)C2=O)cc1` (stereo not drawn) stands 78 to 79 °C.
For `O=C1CCCN1c1cnc2cnc(-c3ccc(O)cc3)nc2c1`, the melting point is over 268 °C.
In the case of `C=C1C(OC(C)=O)C(CO)OC1n1ccc(NC(C)=O)nc1=O` (stereo not drawn) it was 174 to 175 °C; in that of `CC1(Br)C(Br)=CC(O)=C(Br)C1Br` (stereo not drawn), 195 to 196 °C.
The compound `O=C(CC1=CC(OC2CCCCO2)CC1=O)Oc1ccc2ccccc2c1` (stereo not drawn) showed a melting point of 75 °C.
On to `O=C1[C@H]2CCC[C@H]2N(C(=O)CBr)c2ccc(Cl)cc2N1Cc1ccccc1` (relative stereo), for which the melting point lay within 163 to 164 °C.
In the case of `CC(C)(C)c1ncc(C(C(=O)O)C(C)(C)C)cn1` (single isomer, unassigned; (+)), the melting point was 222 to 224 °C.
`COc1ccc(C(O)CNCc2cccc([N+](=O)[O-])c2)cc1OC` (stereo not drawn): the melting point fell in the range of 105 to 107 °C.
In turn, `CS(=O)(=O)c1c(Cl)nc(Cl)nc1Cl` displayed a melting point of 146 to 147 °C.
Under `CC(C)CSc1cc(C(=O)O)cc(S(N)(=O)=O)c1Oc1ccccc1` stands 193 to 194 °C; under `CC(C)CCCCCCCCCCCC(=O)Nc1ccc(O)c(O)c1`, 85 to 86 °C; under `COc1ccc2c(c1)CC(C(=O)NCCOc1ccc(C(=O)O)cc1)N2S(=O)(=O)c1ccc(-c2ccc(F)cc2F)cc1` (stereo not drawn), 91 °C.
In the case of `CCOC(=O)N(c1ccc(C#N)cc1)c1c(NC(C)C(C)(C)C)c(=O)c1=O` (stereo not drawn) it was 158 to 159 °C; in that of `N#Cc1cccc2c1N(Cc1ccc(Cl)s1)C(=O)C21COc2cc3c(cc21)OCO3` (stereo not drawn), 192 to 193 °C; in that of `CCn1nc(-c2ccccc2)c(C(C)=O)c(Nc2cccc3nnc(C)cc23)c1=O`, 235 to 238 °C.
In the case of `CCCCCSc1ncccc1C(=O)NCCCCn1cnc2c(N)nc3ccccc3c21`, the melting point lay in the range of 158 to 161 °C.
Consider `[N-]=[N+]=NCc1cccc(C(=O)c2ccc(Cl)cc2)c1`, for which the melting point was in the range of 43 to 45 °C.
Under `NC1(C(F)F)CCCNC1=O` (stereo not drawn) stands 149 °C; under `Cn1c(C(F)(F)F)cc(=O)n(-c2c(F)cc(Cl)c3cc(CO)oc23)c1=O`, 198 to 199 °C; under `CCOC(=O)c1ccc(NCCCCCc2ccccc2)cc1`, 63 to 64 °C.
Under `Nc1ccnc(-c2nnn(Cc3cc(C(F)(F)F)cc(C(F)(F)F)c3)c2-c2ccccc2)c1C(=O)c1ccccc1Cl` stands 156 °C; under `Cc1cc(C)nc([NH+]([O-])C(=O)Cc2cccs2)c1` (stereo not drawn), 154 to 155 °C; under `CC(=O)c1oc2ccc(C)cc2c1C`, 66.3 to 66.5 °C.
`Cc1nc2cc(C#N)cc(C#N)c2[nH]1` had a melting point of 290 to 292 °C.
The compound `CCOC(=O)C(=CN(C)C)C(=O)c1cc2cc(F)c(Cl)cc2nc1Cl` showed a melting point of 122 °C.
In the case of `CC(=O)NCC1CN(c2ccc(N3CCN(c4nc5ccccc5s4)CC3)c(F)c2)C(=O)O1` (stereo not drawn) it was 239 to 240 °C.
In the case of `C=C(Cc1c(Cl)cccc1Cl)C(=O)O` it was 132 °C; in that of `O=[N+]([O-])c1c(Br)nn(Cc2ccccc2)c1NCCO`, 110 to 112 °C.
In the case of `CSc1nnsc1-c1cccs1` it was 49 to 49.5 °C; in that of `O=C(O)c1cccc(-c2ccc3c(c2)C(c2ccc(Cl)cc2Cl)CCO3)c1` (stereo not drawn), 223 to 224 °C.
`CC(c1oc2ccccc2c(=O)c1-c1cccc(F)c1)n1nc(-c2cccc(C(=O)NC3CC3)c2)c2c(N)ncnc21` (stereo not drawn): the melting point lay in the range of 127 to 132 °C.
In the case of `O=C(O)CCc1cc2nc(C(F)(F)F)ccc2n1S(=O)(=O)c1ccccc1`, the melting point turned out to be 180 °C.
For `O=C(NCc1ccn(-c2cc3nc(C(=O)O)c(=O)[nH]c3cc2Cl)c1)Nc1cccc2ccccc12`, the melting point lay in the range of 196 to 198 °C.
In turn, `Cc1nnc(-c2ccc(CN3C(=O)C4(COc5cc6c(cc54)CCO6)c4ccccc43)cc2)[nH]1` (stereo not drawn) showed a melting point of 169 to 180 °C.
In the case of `CC(=O)OC1(C(C)CN(C)C)CCCCC1c1ccccc1` (single isomer, unassigned; (-)) it was 63 to 66 °C.
